Experimental data taken from ChEMBL document CHEMBL1201862, “PubChem BioAssay data set” (2004).
pIC50: −log10 of the molar value. The source made the active and inactive calls.

What was measured:
[1] = target: Beta-2 adrenergic receptor (Homo sapiens, UniProt P07550); assay: ADRB2 activation measured by internalization – cell-based, FAP fluorogen, flow cytometry, cherry pick 1, dose response (AID 588763); type: functional
[2] = target: DNA topoisomerase (Yersinia pestis, UniProt A0A2S9PM60); assay: Yersinia topoisomerase I cleavage product accumulation – biochemical, cherry-pick, dose response (AID 588525)
DNA topoisomerase, sequence (A0A2S9PM60 whole entry): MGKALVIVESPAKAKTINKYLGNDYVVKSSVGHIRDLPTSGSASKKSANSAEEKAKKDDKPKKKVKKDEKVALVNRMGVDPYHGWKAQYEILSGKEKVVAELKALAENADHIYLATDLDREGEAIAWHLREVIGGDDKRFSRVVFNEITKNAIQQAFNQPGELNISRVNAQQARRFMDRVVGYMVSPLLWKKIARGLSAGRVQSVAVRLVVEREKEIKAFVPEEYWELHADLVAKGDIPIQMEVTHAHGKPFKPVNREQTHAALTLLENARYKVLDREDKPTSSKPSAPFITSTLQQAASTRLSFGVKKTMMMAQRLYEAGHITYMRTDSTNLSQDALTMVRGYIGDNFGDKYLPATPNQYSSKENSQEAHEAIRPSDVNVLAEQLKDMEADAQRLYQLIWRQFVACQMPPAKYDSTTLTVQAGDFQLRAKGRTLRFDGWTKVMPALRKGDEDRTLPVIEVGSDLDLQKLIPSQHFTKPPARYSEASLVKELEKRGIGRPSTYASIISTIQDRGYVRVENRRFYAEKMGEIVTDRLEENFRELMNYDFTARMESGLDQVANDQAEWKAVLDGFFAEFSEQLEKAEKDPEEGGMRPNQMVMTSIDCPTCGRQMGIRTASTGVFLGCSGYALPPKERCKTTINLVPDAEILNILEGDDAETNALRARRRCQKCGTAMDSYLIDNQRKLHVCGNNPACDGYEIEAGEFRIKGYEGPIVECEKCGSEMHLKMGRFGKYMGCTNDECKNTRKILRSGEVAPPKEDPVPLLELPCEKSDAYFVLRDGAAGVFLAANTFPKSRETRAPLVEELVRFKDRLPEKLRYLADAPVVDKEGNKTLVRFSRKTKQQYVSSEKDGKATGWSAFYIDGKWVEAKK

[3] = alpha-synuclein stem-loop luciferase translation blockers – H4 neuroglioma cells, luminescence, confirmation (AID 1988); type: functional, cell-based
[4] = system: INS1; assay: INS-1E survival protection against cytokine death – cell-based, luminescence, retest, dose response (AID 449756); type: functional; settings: Rattus norvegicus;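 also: cell death triggered by IL-1 beta plus TNF-alpha plus IFN-gamma mixture; protective hits raise ATP signal compared with cytokine alone wells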
[5] = Luminescence Cell-Based Dose Response HTS to Identify Inhibitors of 5'UTR Stem-Loop Driven Prion Protein mRNA Translation in H4 Neuroglioblastoma Cells. [Related pubchem assays: 1827 (Project Summary), 1813 (Primary HTS)]; type: functional
[6] = target: Latent membrane protein 1 (Human herpesvirus 4 (strain B95-8), UniProt P03230); assay: LMP1 TES1 pathway selectivity over dsRED control – imaging, HEK293T, dual-color eGFP/dsRED, cherry-picks, selectivity assay for LMP1 NF-kB inhibitor project, dose response (AID 588398); type: functional, cell-based
Latent membrane protein 1, sequence (P03230 whole entry): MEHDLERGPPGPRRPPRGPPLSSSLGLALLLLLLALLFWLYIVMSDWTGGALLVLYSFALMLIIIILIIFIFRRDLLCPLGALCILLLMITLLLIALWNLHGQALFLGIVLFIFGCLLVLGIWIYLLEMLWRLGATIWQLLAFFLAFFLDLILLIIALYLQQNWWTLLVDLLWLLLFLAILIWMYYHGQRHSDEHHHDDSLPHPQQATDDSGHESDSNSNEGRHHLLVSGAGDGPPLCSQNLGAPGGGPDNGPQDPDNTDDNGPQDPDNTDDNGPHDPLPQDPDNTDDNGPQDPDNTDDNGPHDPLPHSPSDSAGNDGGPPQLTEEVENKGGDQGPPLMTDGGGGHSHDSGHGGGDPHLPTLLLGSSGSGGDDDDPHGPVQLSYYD

[7] = target: T1, Neuropeptide Y receptor type 2 (Homo sapiens, UniProt P49146); assay: Fluorescence-based cell-based high-throughput dose response assay for agonists of NPY-Y2. [Related pubchem assays: 1703 (Screening assay (CNGC inhibitors).), 1359 (Screening assay (NPY-Y2 potentiators or agonists).), 1304 (Screening assay (NPY-Y1 potentiators or agonists).), 1710 (Screening assay (NPY-Y2 agonists).), 1791 (Summary AID.)]; type: functional
T1 sequence (P49146 whole entry): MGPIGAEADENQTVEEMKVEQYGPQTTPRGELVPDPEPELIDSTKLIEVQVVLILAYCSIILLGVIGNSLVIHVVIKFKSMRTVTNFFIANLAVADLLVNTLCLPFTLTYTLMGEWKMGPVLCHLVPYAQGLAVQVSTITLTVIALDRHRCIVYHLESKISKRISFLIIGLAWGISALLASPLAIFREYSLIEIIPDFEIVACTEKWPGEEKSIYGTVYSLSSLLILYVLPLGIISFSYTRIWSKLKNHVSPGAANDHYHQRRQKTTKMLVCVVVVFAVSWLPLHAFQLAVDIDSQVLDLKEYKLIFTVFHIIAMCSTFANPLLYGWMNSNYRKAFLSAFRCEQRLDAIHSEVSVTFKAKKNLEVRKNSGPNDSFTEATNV

[8] = HEK-293T viability loss after treatment – luminescence, T-cell screen hits, cytotoxicity control for TCR NF-kB inhibitor project, dose response (AID 489026); type: functional, cell-based;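 also: cells exposed to compound about 14 hours before the viability readout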
[9] = system: HEK293; assay: Fluorescence-based counterscreen for potentiators or agonists of NPY-Y2: cell-based high-throughput dose response assay to identify inhibitors of cyclic nucleotide gated ion channel (CNGC) activity. In this assay, the parental HEK293 cell line transfected with a cyclic-nucleotide gated ion channel (CNGC)-based cAMP sensor is used to measure inhibition of isoproterenol-induced CNGC activity by test compound.; type: functional; settings: Homo sapiens
[10] = system: BJ; assay: BJ-TERT-LT-ST fibroblast viability loss – cell-based, RAS-independent, luminescence, dose response (AID 1935); type: functional; settings: Homo sapiens;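 also: BJ fibroblasts immortalized with TERT plus LT and ST oncogenes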
[11] = general mammalian cell viability loss – inhibitor set, cherry-pick, set 2, cytotoxicity control for miR-122 modulator project, dose response (AID 720697); type: functional, cell-based
[12] = system: BJ; assay: growth inhibition of engineered Ras-driven BJ cells – cell-based, alamar blue fluorescence, cherrypicked samples, dose response (AID 2631); type: functional; settings: Homo sapiens;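 also: confirmatory dose-response assay in RAS-dependent BJ fibroblasts engineered with TERT, LT and ST, with cytotoxicity read by fluorescence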
[13] = Luminescence-based dose response cell-based high throughput screening assay for cytotoxic compounds using the IEC-6 intestinal epithelial cell line. [Related pubchem assays: 1858 (Summary AID.), 1825 (Counterscreen.), 1907 (Confirmation screen.)]; type: functional
[14] = DRD fibroblast viability loss – cell-based, non-viral oncogenic, luminescence, dose response (AID 1934); type: functional; settings: Homo sapiens
[15] = activation of miR-122 Renilla sensor silencing – cell-based, Huh7 psiCHECK-miR122, Renilla luciferase, cherry-picked, dose response (AID 651956); type: functional;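 also: huh7 hepatoma cells stably carrying a psiCHECK-2 miR-122 sensor plasmid; renilla luciferase signal reporting endogenous miR-122 activity after 48 h compound exposure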
[16] = system: BJ; assay: cells; type: functional, cell-based; settings: Homo sapiens
[17] = target: Sphingosine 1-phosphate receptor 2 (Homo sapiens, UniProt O95136); assay: Dose Response Cell Based Assay for Antagonists of the S1P2 Receptor. [Related pubchem assays: 856, 736 ]; type: functional
Sphingosine 1-phosphate receptor 2, sequence (O95136 whole entry): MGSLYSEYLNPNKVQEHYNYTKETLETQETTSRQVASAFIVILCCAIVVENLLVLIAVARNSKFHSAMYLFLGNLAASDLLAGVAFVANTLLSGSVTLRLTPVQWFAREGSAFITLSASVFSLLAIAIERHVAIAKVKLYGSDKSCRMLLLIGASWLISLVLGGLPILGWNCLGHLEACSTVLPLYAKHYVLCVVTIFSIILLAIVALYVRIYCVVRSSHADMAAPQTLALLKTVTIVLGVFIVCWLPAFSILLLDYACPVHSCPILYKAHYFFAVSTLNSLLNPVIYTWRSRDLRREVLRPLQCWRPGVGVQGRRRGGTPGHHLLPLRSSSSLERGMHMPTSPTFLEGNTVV

[18] = system: HEK293; assay: EBV LMP1 TES2 canonical NF-kB signalling blockers – cell-based, HEK293, luciferase, cherry-pick, dose response (AID 588343); type: functional; settings: Homo sapiens
[19] = target: T2, Neuropeptide Y receptor type 1 (Homo sapiens, UniProt P25929); assay: Fluorescence-based counterscreen for agonists of NPY-Y2: cell-based high-throughput dose response assay for agonists of NPY-Y1.; type: functional
T2 sequence (P25929 whole entry): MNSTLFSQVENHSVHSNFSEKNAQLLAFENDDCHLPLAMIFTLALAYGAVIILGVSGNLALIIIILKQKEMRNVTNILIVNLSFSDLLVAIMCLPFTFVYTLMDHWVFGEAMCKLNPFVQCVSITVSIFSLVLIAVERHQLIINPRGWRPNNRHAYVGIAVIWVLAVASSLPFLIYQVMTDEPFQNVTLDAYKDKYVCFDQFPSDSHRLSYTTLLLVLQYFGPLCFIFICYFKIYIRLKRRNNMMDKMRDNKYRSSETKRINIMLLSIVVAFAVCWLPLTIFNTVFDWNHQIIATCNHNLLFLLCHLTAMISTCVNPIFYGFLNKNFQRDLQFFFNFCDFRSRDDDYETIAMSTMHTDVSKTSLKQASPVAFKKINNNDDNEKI

[20] = luciferase reporter signal suppression in cells – H4 neuroglioma cells, luminescence, dose response (AID 1990); type: functional, cell-based
[21] = general mammalian cell viability loss – activator set, cherry-pick, cytotoxicity control for miR-122 modulator project, dose response (AID 720690); type: functional, cell-based;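 also: HEK293T human cells scored for general mammalian cytotoxicity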
[22] = system: BJ; assay: BJ-TERT fibroblast viability loss – cell-based, RAS-independent, luminescence, dose response (AID 1933); type: functional; settings: Homo sapiens
[23] = target: Type-1 angiotensin II receptor (Homo sapiens, UniProt P30556); assay: antagonism of angiotensin II type 1 receptor – cell-based, uHTS hits, selectivity assay for APJ receptor antagonist project, dose response (AID 463214); type: functional;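 also: antagonist potency against angiotensin II stimulated AT1 response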
Type-1 angiotensin II receptor, sequence (P30556 whole entry): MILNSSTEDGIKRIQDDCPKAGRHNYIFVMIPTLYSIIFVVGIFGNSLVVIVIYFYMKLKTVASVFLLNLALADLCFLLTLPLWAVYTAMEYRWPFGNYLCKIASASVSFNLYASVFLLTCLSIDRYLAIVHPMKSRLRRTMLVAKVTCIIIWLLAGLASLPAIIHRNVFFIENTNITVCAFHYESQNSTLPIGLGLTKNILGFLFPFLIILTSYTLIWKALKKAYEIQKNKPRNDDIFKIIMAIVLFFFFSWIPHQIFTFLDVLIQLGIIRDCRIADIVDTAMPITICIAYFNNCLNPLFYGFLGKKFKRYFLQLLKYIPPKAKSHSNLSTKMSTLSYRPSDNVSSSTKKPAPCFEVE

[24] = target: T3, Beta-galactosidase (Escherichia coli, UniProt Q8VNN2); assay: PubChem AID 485352; type: functional
T3 sequence (Q8VNN2 whole entry): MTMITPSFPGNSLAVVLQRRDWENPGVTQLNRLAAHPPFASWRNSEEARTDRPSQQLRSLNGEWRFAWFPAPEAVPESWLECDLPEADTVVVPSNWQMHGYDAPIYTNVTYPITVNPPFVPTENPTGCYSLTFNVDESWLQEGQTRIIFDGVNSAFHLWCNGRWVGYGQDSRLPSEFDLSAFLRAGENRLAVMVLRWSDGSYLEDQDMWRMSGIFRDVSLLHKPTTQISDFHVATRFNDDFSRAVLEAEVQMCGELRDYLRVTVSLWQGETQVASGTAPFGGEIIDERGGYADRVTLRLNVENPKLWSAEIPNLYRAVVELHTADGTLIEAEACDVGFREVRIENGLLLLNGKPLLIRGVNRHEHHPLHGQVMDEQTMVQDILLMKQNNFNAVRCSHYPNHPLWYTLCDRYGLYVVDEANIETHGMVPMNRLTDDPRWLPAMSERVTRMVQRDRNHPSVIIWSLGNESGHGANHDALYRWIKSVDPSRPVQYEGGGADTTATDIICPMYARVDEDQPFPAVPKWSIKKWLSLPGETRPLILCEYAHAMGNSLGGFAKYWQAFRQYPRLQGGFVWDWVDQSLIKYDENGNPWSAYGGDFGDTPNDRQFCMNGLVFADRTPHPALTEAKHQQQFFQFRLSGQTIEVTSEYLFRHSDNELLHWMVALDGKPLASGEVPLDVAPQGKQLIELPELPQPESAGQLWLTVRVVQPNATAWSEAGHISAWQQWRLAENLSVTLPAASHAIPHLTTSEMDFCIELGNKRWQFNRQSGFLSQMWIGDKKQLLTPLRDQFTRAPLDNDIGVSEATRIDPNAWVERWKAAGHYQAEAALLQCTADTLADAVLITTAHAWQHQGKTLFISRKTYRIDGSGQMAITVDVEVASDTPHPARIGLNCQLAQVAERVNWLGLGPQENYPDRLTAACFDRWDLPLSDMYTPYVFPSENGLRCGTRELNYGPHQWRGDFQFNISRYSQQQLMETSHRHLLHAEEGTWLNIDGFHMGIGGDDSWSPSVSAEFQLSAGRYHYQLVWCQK

[25] = cells; type: functional
[26] = HepG2 cell cytotoxicity, dose response, cytotoxicity control for non-replicating M. tuberculosis project (AID 489018); type: functional; settings: Mycobacterium tuberculosis
[27] = system: Streptococcus sp. 'group A'; assay: Streptococcus pyogenes SK(-)GAS viability under kanamycin – luminescence, BacTiterGlo, confirmation, counter-screen for streptokinase expression inhibitor project, dose response (AID 1900); type: functional, organism-based
[28] = system: Streptococcus; assay: GAS UMAA2166 growth inhibition – luminescence, BacTiterGlo, counter-screen for streptokinase expression inhibitor project, dose response (AID 1915); type: functional, organism-based;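 also: potency for reduction of bacterial viability or growth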
[29] = target: Mu-type opioid receptor (Homo sapiens, UniProt P35372); assay: HTS Image-Based Screen for Agonists of the MOR Receptor. [Related pubchem assays (depositor defined):AID1777, AID1785, AID1786, AID2133]; type: functional;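 also: imaging of beta-arrestin GFP recruitment into spots after receptor activation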
Mu-type opioid receptor, sequence (P35372 whole entry): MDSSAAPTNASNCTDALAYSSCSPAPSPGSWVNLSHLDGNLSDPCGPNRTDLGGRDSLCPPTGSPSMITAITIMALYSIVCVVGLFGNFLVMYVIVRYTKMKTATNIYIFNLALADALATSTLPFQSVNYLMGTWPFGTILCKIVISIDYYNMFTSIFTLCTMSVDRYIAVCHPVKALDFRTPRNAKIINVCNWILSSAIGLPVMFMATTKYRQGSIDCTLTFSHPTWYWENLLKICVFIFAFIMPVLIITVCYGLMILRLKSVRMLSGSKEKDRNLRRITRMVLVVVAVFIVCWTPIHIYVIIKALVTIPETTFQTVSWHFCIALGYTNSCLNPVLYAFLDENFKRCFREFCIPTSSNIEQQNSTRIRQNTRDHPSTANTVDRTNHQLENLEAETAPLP

[30] = target: T4, Kappa-type opioid receptor (Homo sapiens, UniProt P41145); type: functional
T4 sequence (P41145 whole entry): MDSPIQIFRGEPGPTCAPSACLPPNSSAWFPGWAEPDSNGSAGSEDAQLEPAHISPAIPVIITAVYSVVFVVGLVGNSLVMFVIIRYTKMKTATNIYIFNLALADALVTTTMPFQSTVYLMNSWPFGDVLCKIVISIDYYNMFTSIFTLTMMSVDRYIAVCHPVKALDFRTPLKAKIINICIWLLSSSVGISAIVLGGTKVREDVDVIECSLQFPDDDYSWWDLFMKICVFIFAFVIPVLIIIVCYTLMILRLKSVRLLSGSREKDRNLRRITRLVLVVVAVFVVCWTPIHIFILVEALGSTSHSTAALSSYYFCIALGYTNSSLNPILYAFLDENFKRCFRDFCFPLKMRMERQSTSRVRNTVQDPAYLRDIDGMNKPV

[31] = Trypanosoma cruzi growth suppression in host cells – NIH3T3 host cells, beta-gal luminescence, confirmation (AID 2044); type: functional, cell-based;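 also: intracellular parasites grown in NIH/3T3 mouse fibroblasts as host cells; luminescent beta-galactosidase reporter signal from transgenic T. cruzi replicating inside host cells; inhibitors lower the luminescence signal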
[32] = target: T5, Delta-type opioid receptor (Homo sapiens, UniProt P41143); assay: HTS Image-Based Screen for Antagonists of the DOR Receptor. [Related pubchem assays (depositor defined):AID1777, AID1785, AID1786, AID2133]; type: functional
T5 sequence (P41143 whole entry): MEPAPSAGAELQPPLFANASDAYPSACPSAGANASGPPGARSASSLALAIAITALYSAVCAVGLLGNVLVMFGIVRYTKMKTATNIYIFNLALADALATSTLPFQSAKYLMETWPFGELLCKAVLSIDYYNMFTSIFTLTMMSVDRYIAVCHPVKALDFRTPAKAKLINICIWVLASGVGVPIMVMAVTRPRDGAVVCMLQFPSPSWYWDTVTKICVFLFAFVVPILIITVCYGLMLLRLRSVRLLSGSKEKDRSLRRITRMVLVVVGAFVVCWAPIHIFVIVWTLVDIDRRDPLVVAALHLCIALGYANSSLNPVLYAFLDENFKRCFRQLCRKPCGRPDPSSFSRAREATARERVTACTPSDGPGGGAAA

[33] = NIH3T3 cell viability loss – ATP luminescence, mouse fibroblasts, counter-screen, dose response (AID 2010); type: functional, cell-based;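 also: cells exposed to compound for about 90 hours before reading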
[34] = THP-1 cell cytotoxicity, dose response, cytotoxicity control for non-replicating M. tuberculosis project (AID 489025); type: functional
[35] = target: T4, Kappa-type opioid receptor; type: functional; remark: listed apart in the source
[36] = Vero E6 cell cytotoxicity, dose response, cytotoxicity control for non-replicating M. tuberculosis project, secondary assay (AID 492998); type: functional, VeroE6; settings: Vero C1008
[37] = target: T5, Delta-type opioid receptor; assay: HTS Image-Based Screen for Agonists of the DOR Receptor. [Related pubchem assays (depositor defined):AID1777, AID1786, AID2133]; type: functional
[38] = target: T3, Beta-galactosidase; type: functional
[39] = target: T6, CAAX prenyl protease 2 (Saccharomyces cerevisiae S288c, UniProt Q03530); type: biochemical
T6 sequence (Q03530 whole entry): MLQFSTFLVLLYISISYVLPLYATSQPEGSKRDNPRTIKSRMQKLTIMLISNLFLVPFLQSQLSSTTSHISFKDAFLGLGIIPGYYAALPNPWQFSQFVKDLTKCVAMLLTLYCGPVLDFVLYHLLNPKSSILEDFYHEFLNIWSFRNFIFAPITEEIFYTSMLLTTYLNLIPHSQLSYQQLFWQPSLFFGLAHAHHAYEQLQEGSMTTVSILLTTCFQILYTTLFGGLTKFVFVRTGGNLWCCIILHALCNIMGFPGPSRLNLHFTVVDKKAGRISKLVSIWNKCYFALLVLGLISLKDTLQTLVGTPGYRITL

[40] = target: T6, CAAX prenyl protease 2; assay: inhibition of Rce1p peptide cleavage – biochemical, plate reader, dry powder retest, dose response (AID 588851)

Beta-2 adrenergic receptor, sequence (P07550 whole entry): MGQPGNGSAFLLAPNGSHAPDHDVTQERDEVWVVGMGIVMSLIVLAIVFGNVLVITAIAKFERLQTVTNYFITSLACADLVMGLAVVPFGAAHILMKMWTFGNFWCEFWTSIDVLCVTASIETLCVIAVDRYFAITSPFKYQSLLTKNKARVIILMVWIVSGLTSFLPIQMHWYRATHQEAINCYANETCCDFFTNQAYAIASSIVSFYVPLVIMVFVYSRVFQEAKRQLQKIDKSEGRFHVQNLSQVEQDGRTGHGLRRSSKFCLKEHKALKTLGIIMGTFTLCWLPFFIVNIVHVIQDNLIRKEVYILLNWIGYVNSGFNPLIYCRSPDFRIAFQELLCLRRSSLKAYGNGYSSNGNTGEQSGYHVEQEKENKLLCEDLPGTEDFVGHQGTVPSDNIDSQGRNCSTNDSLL

CN(C)c1ccc(-c2noc(C3CCN(S(=O)(=O)c4cccc(Cl)c4)CC3)n2)cc1
EC50 [1]: 1.23 µM (active)

Cc1ccc(SCc2cc(O)nc(Nc3nc(C)c4ccc(C)cc4n3)n2)cc1
AC50 [2]: 2.96 µM (active)

O=C(NC(Nc1nc2ccc([N+](=O)[O-])cc2s1)(C(F)(F)F)C(F)(F)F)c1ccccc1
EC50 [3]: 0.449 µM (active)
AC50 [4]: 0.298 µM (active)
EC50 [5]: 7.5 µM (active)
AC50 [6]: 0.816 µM (active)
EC50 [7]: 31.9 µM (not active)
IC50 [8]: > 80 µM (inactive)
EC50 [9]: > 35.4 µM (not active)
EC50 [10]: 2.85 µM (inconclusive)
AC50 [11]: < 0.195 µM (active)
EC50 [12]: 0.727 µM (active)
IC50 [13]: 1.03 µM (active)
EC50 [14]: 1.66 µM (active)
AC50 [15]: 1.41 µM (active)
EC50 [16]: 1.34 µM (active)
IC50 [17]: 0.682 µM (active)
AC50 [18]: 0.208 µM (active)
EC50 [19]: 35.3 µM (not active)
EC50 [20]: 0.394 µM (active)
AC50 [21]: 0.546 µM (active)
EC50 [22]: 1.41 µM (active)

Cc1[nH]c2ccccc2c1/C=C1\SC(=N)N(c2nccs2)C1=O
IC50 [23]: 14.8 µM (active)
EC50 [24]: > 40 µM (inactive)
IC50 [25]: < 0.1 µM (active)
CC50 [26]: 8.83 µM (active)
EC50 [27]: 0.198 µM (active)
EC50 [28]: 1.08 µM (active)
EC50 [29]: > 32 µM (inactive)
pIC50 [30]: 4.74
EC50 [31]: 1.17 µM (active)
IC50 [32]: 23.4 µM (inactive)
EC50 [33]: 5.8 µM (active)
CC50 [34]: 10.1 µM (active)
IC50 [35]: 6.76 µM (active)
CC50 [36]: 5.16 µM (active)
EC50 [37]: > 32 µM (inactive)
EC50 [38]: > 31.5 µM (inactive)

CN(C(=O)COC(=O)c1cn(-c2ccccc2)nc1-c1ccccc1)C1CCS(=O)(=O)C1 (stereo not given)
AC50 [39]: 0.679 µM (active)
AC50 [40]: 25.1 µM (active)
